Results from patent publication US7585460B2, “Method for inhibiting the biological acidification of water in contact with materials containing sulfur” (ENI S.p.A., priority 2003, dated 2009).

Experiments:
Assay type in all cases: cell-based, Thiobacillus
Thiobacilli (consortium) = test: Acidification of TM medium with sulfur powder inoculated with a culture of Thiobacilli (Example 3); settings: 33 g/l NaCl
Procedure: 25 ml of TM medium (regulated to pH 6 with HCl 0.1 N and sterilized in an autoclave with vapour for 20 minutes at 121° C.) were introduced into 100 ml flasks. 0.1 g (0.4%) of elemental sulfur (sulfur powder 98%-UNI sieved:0.05) were added to the TM culture medium. 2 g of small sulfur fragments taken from a sulfur deposit in Canada exposed for years to the outside environment and consequently definitely contaminated by sulfo-oxidizing bacteria, were added to the medium as a source of micro-organisms. The cultures were incubated under bland orbital stirring (100 rpm) for 25 days. During the incubation, the cultures were controlled daily for the indirect quantitative evaluation of the cellular development by registering the optical density value (at 600 nm) and to measure the lowering of the pH value.
At the end of this period, the culture broths obtained, with a cellular density higher than 10^7 cells/ml and a lowering of the pH of the medium to a value of 1.5, were filtered on common filter paper to eliminate the particles of excess sulfur and to be preserved, in 2 ml aliquots, in polypropylene phials, in a refrigerator at −70° C., as standardized inoculum.
The two consortia: that produced starting from collection strains and the one prepared starting from sulfur samples removed from actual deposits, were compared with respect to the growth curves and acidification capacity. […] It was then decided to use, for the whole following experiment, the trigger culture consisting of the wild type strains selected from the natural environment. This culture is hereafter called “consortium”.
25 ml of TM—in demineralized water—at pH 6, inoculated with 0.4% (vol/vol) of the bacterial suspension (consortium), with the addition of 0.1 g of sulfur powder, were introduced into 100 ml flasks. 33 g/l of NaCl were added to the medium to evaluate the inhibiting effect of the salt on the growth of the Thiobacilli and the acidification of the solution. Control cultures without NaCl were incubated parallelly.
The culture broths were controlled for pH and absorbance variations.

[1] = test system: Thiobacilli (microbial consortium); test: Comparison of NaCl and SLS, TM medium with sulfur flowers and inoculated mixed culture (Example 6); settings: for O.D. / p.H.: B: 33 g/l of NaCl
Procedure: The experiment was aimed at comparing the action of SLS, a known bacteriostatic for Thiobacilli, and Sodium Chloride on the same microbial consortium.
A series of 6 100 ml flasks containing 50 ml of TM medium (with 0.4 g of sulfur flowers), were inoculated with 1 ml of mixed culture containing 10^8 cells/ml.
• A—2 control flasks containing TM and sulfur, without NaCl; • B—2 flasks with TM, sulfur and 33 g/l of NaCl; • C—2 flasks with TM, sulfur and 20 mg/l of SLS (concentration used in literature as bacteriostatic) The pH values and the bacterial growth were measured over a period of 34 days, by means of the increase in the absorbance.

Thiobacilli [2] = test: Acidification of rainwater over submersed sulfur block wetted with Thiobacilli, outdoors (Example 8); settings: 30 g/l NaCl
Procedure: Two blocks of elemental sulfur with an upper surface of approximately 2500 cm^2 (8.5 Kg of sulfur) are positioned in two containers. The upper surface of each block of sulfur is wetted with 250 ml of a bacterial suspension of Thiobacilli containing over 10^8 bacteria per milliliter. The two blocks are subsequently submersed with rainwater. Sodium chloride is added to one of the containers until a concentration of 30 g/l is reached.
The containers are exposed to the outside environment for three months, care being taken to regularly replace the water possibly lost by evaporation. At the end of this period, the pH of the solution in the two containers is measured.

Thiobacilli [3] = test: Acidification of water on sulfur block treated with salt powder and covered with sand (Example 9); settings: about 150 g of salt in powder form on surface, 2 cm sand
Procedure: Two blocks of elemental sulfur with an upper surface of approximately 2500 cm^2 (8.5 Kg of sulfur) are positioned in two containers. The upper surface of each block of sulfur is wetted with 250 ml of a bacterial suspension of Thiobacilli containing over 10^8 bacteria per milliliter. The surface of one block is then treated with sodium chloride by spreading about 150 g of salt in powder form uniformly distributed. The two blocks are subsequently covered with a 2 cm layer of sand and wetted at regular intervals of time with rainwater until the layer of sand is saturated and the rilling of excess water is produced with respect to the saturation. Rainwater is added every month in a quantity equivalent to a fall of 100 mm.
The containers are exposed to the outside environment for three months. At the end of this period, the pH of the water in contact with the sulfur in the two containers, is measured.

SMILES: [Cl-].[Na+] [NaCl, Sodium Chloride]
- Optical density (Thiobacilli (consortium); day 0): 0.021
- pH (Thiobacilli (consortium); day 0): 6.0
- Optical density (Thiobacilli (consortium); day 1): 0.025
- pH (Thiobacilli (consortium); day 1): 6.0
- Optical density (Thiobacilli (consortium); day 3): 0.024
- pH (Thiobacilli (consortium); day 3): 6.0
- Optical density (Thiobacilli (consortium); day 5): 0.028
- pH (Thiobacilli (consortium); day 5): 5.8
- Optical density (Thiobacilli (consortium); day 9): 0.021
- pH (Thiobacilli (consortium); day 9): 5.8
- Optical density (Thiobacilli (consortium); day 12): 0.021
- pH (Thiobacilli (consortium); day 12): 5.8
- Optical density (Thiobacilli (consortium); day 14): 0.021
- pH (Thiobacilli (consortium); day 14): 5.8
- Optical density (Thiobacilli (consortium); day 16): 0.014
- pH (Thiobacilli (consortium); day 16): 5.8
- Optical density (Thiobacilli (consortium); day 19): 0.012
- pH (Thiobacilli (consortium); day 19): 5.8
- Optical density (Thiobacilli (consortium); day 21): 0.010
- pH (Thiobacilli (consortium); day 21): 5.8
- Optical density (Thiobacilli (consortium); day 24): 0.010
- pH (Thiobacilli (consortium); day 24): 5.8
- Optical density (Thiobacilli (consortium); day 26): 0.014
- pH (Thiobacilli (consortium); day 26): 5.8
- efficacy of the treatment with respect to that with SLS ([1]; 33 g/l NaCl vs 20 mg/l SLS, possibly due to the different concentrations): greater efficacy
- inhibition of the acidification of water in contact with elemental sulfur ([1]; 33 g/l NaCl, 20 mg/l SLS): capable of inhibiting the acidification
- O.D. ([1]; day 0): 0.014
- p.H. ([1]; day 0): 6.0
- O.D. ([1]; day 3): 0.015
- p.H. ([1]; day 3): 6.0
- O.D. ([1]; day 5): 0.017
- p.H. ([1]; day 5): 6.0
- O.D. ([1]; day 8): 0.023
- p.H. ([1]; day 8): 5.8
- O.D. ([1]; day 11): 0.028
- p.H. ([1]; day 11): 5.8
- O.D. ([1]; day 16): 0.025
- p.H. ([1]; day 16): 5.8
- O.D. ([1]; day 21): 0.026
- p.H. ([1]; day 21): 5.8
- O.D. ([1]; day 23): 0.022
- p.H. ([1]; day 23): 5.8
- O.D. ([1]; day 28): 0.022
- p.H. ([1]; day 28): 5.8
- O.D. ([1]; day 31): 0.026
- p.H. ([1]; day 31): 5.8
- pH (Thiobacilli [2]; day 0): 6.0
- pH (Thiobacilli [2]; day 10): 5.9
- pH (Thiobacilli [2]; day 20): 5.8
- pH (Thiobacilli [2]; day 30): 5.8
- pH (Thiobacilli [2]; day 40): 5.8
- pH (Thiobacilli [2]; day 90): 5.8
- pH (Thiobacilli [3]; day 0): 6.0
- pH (Thiobacilli [3]; day 10): 5.8
- pH (Thiobacilli [3]; day 20): 5.7
- pH (Thiobacilli [3]; day 30): 5.7
- pH (Thiobacilli [3]; day 40): 5.7
- pH (Thiobacilli [3]; day 90): 5.7
